Assay [1] concerns Candida. The assay can be described thus: Antifungal activity against Candida-51 after 72 to 96 hr by two-fold serial dilution method. The class given is functional.
For assay [2], the system named is Pseudomonas aeruginosa. The assay can be described thus: Antibacterial activity against Pseudomonas aeruginosa after 24 hr by two-fold serial dilution method. The assay is classed as functional.
The test system of assay [3] is Enterococcus faecalis. The assay can be described thus: Antibacterial activity against Enterococcus faecalis after 24 hr by two-fold serial dilution method. The assay is classed as functional.
A further assay concerns Aspergillus niger. The assay can be described thus: Antifungal activity against Aspergillus niger after 72 to 96 hr by two-fold serial dilution method. The class given is functional.
A further assay has as its system Bacillus subtilis. The assay can be described thus: Antibacterial activity against Bacillus subtilis after 24 hr by two-fold serial dilution method. The assay is classed as functional.
Assay [4] deals with Cryptococcus neoformans. The assay is described as follows: Antifungal activity against Cryptococcus neoformans at 100 ug/ml after 72 to 96 hr by two-fold serial dilution method. The assay is classed as functional, organism-based.
Another assay concerns Escherichia coli. The assay can be described thus: Antibacterial activity against Escherichia coli after 24 hr by two-fold serial dilution method. The class given is functional.
Assay [5] relates to Aspergillus flavus. The assay can be described thus: Antifungal activity against Aspergillus flavus after 72 to 96 hr by two-fold serial dilution method. The assay is classed as functional.
Assay [6] deals with Klebsiella pneumoniae. The assay can be described thus: Antibacterial activity against Klebsiella pneumoniae after 24 hr by two-fold serial dilution method. The assay is classed as functional.
Assay [7] deals with Candida. The assay is described as follows: Antifungal activity against Candida-6 after 72 to 96 hr by two-fold serial dilution method. The assay is classed as functional.
For assay [8], the system named is Cryptococcus neoformans. The assay can be described thus: Antifungal activity against Cryptococcus neoformans after 72 to 96 hr by two-fold serial dilution method. The assay is classed as functional.
In assay [9] the test system is Aspergillus flavus. The assay can be described thus: Antifungal activity against Aspergillus flavus at 100 ug/ml after 72 to 96 hr by two-fold serial dilution method. The assay is classed as functional, organism-based.
The test system of assay [10] is Candida. The assay is described as follows: Antifungal activity against Candida-51 at 100 ug/ml after 72 to 96 hr by two-fold serial dilution method. The class given is functional, organism-based.
Assay [11] concerns Klebsiella pneumoniae. The assay is described as follows: Antibacterial activity against Klebsiella pneumoniae at 100 ug/ml after 24 hr by two-fold serial dilution method. The assay is classed as functional, organism-based.
Assay [12] concerns Pseudomonas aeruginosa. The assay is described as follows: Antibacterial activity against Pseudomonas aeruginosa at 100 ug/ml after 24 hr by two-fold serial dilution method. The class given is functional, organism-based.
Assay [13] concerns Candida. The assay is described as follows: Antifungal activity against Candida-6 at 100 ug/ml after 72 to 96 hr by two-fold serial dilution method. The class given is functional, organism-based.
Assay [14] has as its system Enterococcus faecalis. The assay can be described thus: Antibacterial activity against Enterococcus faecalis at 100 ug/ml after 24 hr by two-fold serial dilution method. The class given is functional, organism-based.

The structures appear in SMILES notation. In brackets after ≈: the same amount, converted by molar mass. Activity calls are given as the source filed them. The rule behind the calls is not given here.

Regarding `CC(=O)NC1=NN(C(C)=O)C2(CC(c3ccc(C)cc3)N(C(C)=O)C(c3ccc(C)cc3)C2C)S1` (stereo not given), the MIC is 100 µg/mL (≈ 203 µM) against Candida [1]; 50 µg/mL (≈ 101 µM) in the assay on Pseudomonas aeruginosa [2]; 50 µg/mL (≈ 101 µM) against Enterococcus faecalis [3]; 50 µg/mL (≈ 101 µM) with Aspergillus niger; 100 µg/mL (≈ 203 µM) against Bacillus subtilis; 50 µg/mL (≈ 101 µM) in the assay with Escherichia coli. For the same compound, the MIC worked out at 100 µg/mL (≈ 203 µM) in the assay with Aspergillus flavus [5], 25 µg/mL (≈ 50.7 µM) in the assay on Klebsiella pneumoniae [6] and 50 µg/mL (≈ 101 µM) in the assay with Candida [7]. Also, the inhibition entry in the assay on Cryptococcus neoformans [4] is “inactive”.

`C[C@@H]1[C@H](O)[C@@H](C)/C=C/C=C/C=C/C=C/C=C/C=C/C=C/[C@H](O[C@@H]2O[C@H](C)[C@@H](O)[C@H](N)[C@@H]2O)C[C@@H]2O[C@](O)(C[C@@H](O)C[C@@H](O)[C@H](O)CC[C@@H](O)C[C@@H](O)CC(=O)O[C@H]1C)C[C@H](O)[C@H]2C(=O)O` [AMPHOTERICIN B]: the MIC with Candida [1] was determined as 25 µg/mL (≈ 27.1 µM); in the assay on Aspergillus niger, 50 µg/mL (≈ 54.1 µM); in the assay with Cryptococcus neoformans [8], 25 µg/mL (≈ 27.1 µM); in the assay with Aspergillus flavus [5], 50 µg/mL (≈ 54.1 µM); against Candida [7] it was 25 µg/mL (≈ 27.1 µM).

For the compound `COc1ccc(C2CC3(SC(NC(C)=O)=NN3C(C)=O)C(C)C(c3ccc(OC)cc3)N2C(C)=O)cc1` (stereo not given), the MIC worked out at 25 µg/mL (≈ 47.7 µM) with Candida [1]; 25 µg/mL (≈ 47.7 µM) with Pseudomonas aeruginosa [2]; 25 µg/mL (≈ 47.7 µM) with Enterococcus faecalis [3]; 25 µg/mL (≈ 47.7 µM) against Aspergillus niger; 25 µg/mL (≈ 47.7 µM) against Bacillus subtilis; 6.25 µg/mL (≈ 11.9 µM) against Cryptococcus neoformans [8]. In addition, the MIC against Escherichia coli is 25 µg/mL (≈ 47.7 µM); with Aspergillus flavus [5], 25 µg/mL (≈ 47.7 µM); in the assay with Klebsiella pneumoniae [6] it was 6.25 µg/mL (≈ 11.9 µM); in the assay on Candida [7] it was 50 µg/mL (≈ 95.3 µM).

For `CC(=O)NC1=NN(C(C)=O)C2(CC(c3ccc(Cl)cc3)N(C(C)=O)C(c3ccc(Cl)cc3)C2C)S1` (stereo not given), the minimum inhibitory concentration (MIC) in the assay on Candida [1] was found to be 25 µg/mL (≈ 46.9 µM); in the assay on Pseudomonas aeruginosa [2], 25 µg/mL (≈ 46.9 µM); in the assay on Enterococcus faecalis [3], 12.5 µg/mL (≈ 23.4 µM); against Aspergillus niger, 25 µg/mL (≈ 46.9 µM); in the assay on Bacillus subtilis it was 50 µg/mL (≈ 93.7 µM); with Cryptococcus neoformans [8], 12.5 µg/mL (≈ 23.4 µM). In addition, the MIC with Escherichia coli came out at 25 µg/mL (≈ 46.9 µM); in the assay on Aspergillus flavus [5] it was 50 µg/mL (≈ 93.7 µM); in the assay with Klebsiella pneumoniae [6], 12.5 µg/mL (≈ 23.4 µM); against Candida [7], 25 µg/mL (≈ 46.9 µM).

Regarding `CC1(C)S[C@@H]2[C@H](NC(=O)Cc3ccccc3)C(=O)N2[C@H]1C(=O)O` [PENICILLIN G], the MIC in the assay with Pseudomonas aeruginosa [2] is 50 µg/mL (≈ 150 µM); in the assay with Enterococcus faecalis [3] it was 12.5 µg/mL (≈ 37.4 µM); against Bacillus subtilis, 25 µg/mL (≈ 74.8 µM); against Escherichia coli it was 50 µg/mL (≈ 150 µM); against Klebsiella pneumoniae [6] it was 12.5 µg/mL (≈ 37.4 µM).

Consider `COc1ccc(C2CC3(CC(c4ccc(OC)cc4)N2C(C)=O)SC(NC(C)=O)=NN3C(C)=O)cc1` (stereo not given), for which the MIC amounted to 50 µg/mL (≈ 97.9 µM) against Candida [1]; 50 µg/mL (≈ 97.9 µM) in the assay with Pseudomonas aeruginosa [2]; 25 µg/mL (≈ 49 µM) in the assay on Enterococcus faecalis [3]; 25 µg/mL (≈ 49 µM) in the assay with Aspergillus niger; 25 µg/mL (≈ 49 µM) in the assay with Bacillus subtilis; 12.5 µg/mL (≈ 24.5 µM) against Cryptococcus neoformans [8]. The MIC in the assay with Escherichia coli was 25 µg/mL (≈ 49 µM); against Aspergillus flavus [5], 25 µg/mL (≈ 49 µM); in the assay with Klebsiella pneumoniae [6] it was 12.5 µg/mL (≈ 24.5 µM); in the assay with Candida [7], 25 µg/mL (≈ 49 µM).

Consider `CC(=O)NC1=NN(C(C)=O)C2(CC(c3ccc(C)cc3)N(C(C)=O)C(c3ccc(C)cc3)C2)S1` (stereo not given), for which the MIC was found to be 100 µg/mL (≈ 209 µM) against Candida [1]; 100 µg/mL (≈ 209 µM) against Pseudomonas aeruginosa [2]; 100 µg/mL (≈ 209 µM) against Enterococcus faecalis [3]; 50 µg/mL (≈ 104 µM) against Aspergillus niger; 100 µg/mL (≈ 209 µM) with Bacillus subtilis; 100 µg/mL (≈ 209 µM) against Escherichia coli. Further, the figures for the MIC with Klebsiella pneumoniae [6] and in the assay on Candida [7] were 100 µg/mL (≈ 209 µM) and 50 µg/mL (≈ 104 µM), respectively. The inhibition result in the assay on Aspergillus flavus [9] and in the assay on Cryptococcus neoformans [4] was “inactive” each time.

On to `CC(=O)NC1=NN(C(C)=O)C2(CC(c3ccc(Cl)cc3)N(C(C)=O)C(c3ccc(Cl)cc3)C2)S1` (stereo not given), for which the MIC was 50 µg/mL (≈ 96.3 µM) against Candida [1]; 25 µg/mL (≈ 48.1 µM) in the assay with Pseudomonas aeruginosa [2]; 25 µg/mL (≈ 48.1 µM) against Enterococcus faecalis [3]; 25 µg/mL (≈ 48.1 µM) in the assay on Aspergillus niger; 50 µg/mL (≈ 96.3 µM) in the assay on Bacillus subtilis; 25 µg/mL (≈ 48.1 µM) in the assay with Cryptococcus neoformans [8]. Also, the MIC was 50 µg/mL (≈ 96.3 µM) in the assay with Escherichia coli, 50 µg/mL (≈ 96.3 µM) in the assay on Aspergillus flavus [5], 25 µg/mL (≈ 48.1 µM) against Klebsiella pneumoniae [6] and 50 µg/mL (≈ 96.3 µM) against Candida [7].

Consider `CN[C@@H]1[C@H](O[C@H]2[C@H](O[C@H]3[C@H](O)[C@@H](O)[C@H](N=C(N)N)[C@@H](O)[C@@H]3N=C(N)N)O[C@@H](C)[C@]2(O)C=O)O[C@@H](CO)[C@H](O)[C@H]1O` [STREPTOMYCIN], for which the MIC turned out to be 25 µg/mL (≈ 43 µM) in the assay on Pseudomonas aeruginosa [2]; 50 µg/mL (≈ 86 µM) against Enterococcus faecalis [3]; 12.5 µg/mL (≈ 21.5 µM) against Bacillus subtilis; 12.5 µg/mL (≈ 21.5 µM) against Escherichia coli; 25 µg/mL (≈ 43 µM) with Klebsiella pneumoniae [6].

As for `CC(=O)NC1=NN(C(C)=O)C2(CC(c3ccccc3)N(C(C)=O)C(c3ccccc3)C2C)S1` (stereo not given), the MIC in the assay on Enterococcus faecalis [3] came out at 100 µg/mL (≈ 215 µM); with Aspergillus niger, 50 µg/mL (≈ 108 µM); with Bacillus subtilis, 100 µg/mL (≈ 215 µM); against Escherichia coli it was 50 µg/mL (≈ 108 µM); in the assay with Aspergillus flavus [5], 100 µg/mL (≈ 215 µM). For the same compound, the inhibition entry in the assay on Candida [10], with Cryptococcus neoformans [4], with Klebsiella pneumoniae [11], in the assay with Pseudomonas aeruginosa [12] and in the assay on Candida [13] was “inactive” each time.

Take `CC(=O)NC1=NN(C(C)=O)C2(CC(c3ccccc3)N(C(C)=O)C(c3ccccc3)C2)S1` (stereo not given): the inhibition result with Enterococcus faecalis [14], in the assay with Candida [10], in the assay with Aspergillus flavus [9], in the assay with Cryptococcus neoformans [4], in the assay with Klebsiella pneumoniae [11] and with Pseudomonas aeruginosa [12] was “inactive” each time. The inhibition result in the assay on Candida [13] was “inactive”. Also, the MIC was 100 µg/mL (≈ 222 µM) against Aspergillus niger, 100 µg/mL (≈ 222 µM) against Bacillus subtilis and 50 µg/mL (≈ 111 µM) in the assay with Escherichia coli.

As usually defined, the MIC is the lowest concentration that inhibits growth of the organism.

Values taken from ChEMBL document CHEMBL3046555, “Synthesis and Microbiological Evaluation of Novel [N-Acetyl-2,6-Diarylpiperidin-4-YL]-5-Spiro-4-Acetyl-2-(Acetylamino)-2-1,3,4-Thiadiazolines” (2004).
